Ten compounds from US7989433B2, “Substituted thieno[3,2-D]pyrimidines as melanin concentrating hormone receptor-1 antagonists” (Bristol-Myers Squibb Company, priority 2008, dated 2011) can be followed below.

In data set [1] the target is T1, MCHR (Rattus norvegicus, UniProt P97639).
T1 construct: from tissue; host or cells: whole animal: male Sprague Dawley / Charles River rats
Nature of the data set: Assessment of in vivo MCHR activity in young growing rats (four day efficacy model). As to conditions: for Efficacy at 30 mg/kg (weight loss in young growing rats): 30 mg/kg daily p.o. of ester prodrug, four day model; for Weight Reduction versus Vehicle: young growing rats. The procedure:
Male SPRAGUE DAWLEY® (CD, Charles River Breeding Laboratory) rats weighing approximately 240 grams were place in individual plastic cages with ALPHADRI® bedding. The room was maintained at 72° F. and 50% humidity, and a 12/12 light dark cycle with lights out at 1600 hours. The rats were conditioned for 5 days prior to the start of the study to having a choice of foods. A normal chow (HARLAN TEKLAD®, 2018) that contains 18% protein, 5% fat and 73% carbohydrate and a high fat high sugar diet (Research Diets (D2327)) that contains 20% protein, 40% fat and 40% carbohydrate where the carbohydrate is entirely sucrose and the fat is soybean and coconut oil. […] Body weight and consumption of both kinds of food as well as water intake were measured daily. Water was available ad lib throughout the study. Food consumption is presented as daily caloric consumption which is the sum of grams of chow multiplied by the Kcal per gram (3.5) plus grams of high fat high sugar multiplied by Kcal per gram (4.59).
Baseline body weight was measured prior to drug treatment on day 0 of the study. Baseline food consumption was the average of the 3 days prior to the first drug treatment. […] All data were evaluated using ANOVA and Fishers PLSD statistics.

Data set [2] has as its target T2, mutated (E4Q, A5T) hMCHR1 receptor (Homo sapiens, UniProt Q99705, A5T/E4Q).
T2 construct: expressed in transfected cells; host or cells: HEK-293 (stably transfected), membrane preparation
Kind of data set: Radioligand binding assay for assessment of MCHR1 activity. The following applies: competition vs [Phe13,[125I]Tyr19]-MCH, HEK-293 membranes. From the text:
Compounds of the present invention, namely Compounds IA and IB of the invention, and Compounds a to f (prepared as described in U.S. Patent Publication No. 2007/0093509 A1 published Apr. 26, 2007), were initially characterized in an in vitro binding assay to determine their Ki or ability to antagonize binding of a peptide agonist to the human melanin concentrating hormone receptor (MCHR1).
Radioligand Binding Assay for Assessment of MCHR1 Activity
Membranes from stably transfected HEK-293 cells expressing a mutated (E4Q, A5T) hMCHR1 receptor were prepared by dounce homogenization and differential centrifugation. Binding experiments were carried out with 0.5-1.0 ug of membrane protein incubated in a total of 0.2 ml in 25 mM HEPES (pH 7.4) with 10 mM MgCl2, 2 mM EGTA, and 0.1% BSA (Binding Buffer) for 90 min. For competition binding assays, reactions were carried out in the presence of with 0.06-0.1 nM [Phe^13, [^125I]Tyr^19]-MCH and increasing concentrations of unlabeled test molecules. Reactions were terminated by rapid vacuum filtration over 96 well-GFC Unifilter plates pre-coated with 0.075 ml binding buffer containing 1% BSA, and washed 3 times with 0.4 ml of Phospho-buffered Saline (pH 7.4) containing 0.01% TX-100, Filters were dried, 0.05 ml MicroScint 20 was added to each well and radioactivity was subsequently quantified by scintillation counting on a TOPCOUNT® microplate scintillation counter (Packard). Inhibitory constants were determined by nonlinear least squares analysis using a four parameter logistic equation.

A short description of data set [3]: Rat PK model / eight hour PK study after oral prodrug ester. In kind it is in vivo. As to conditions: Sprague-Dawley; for AUC: blood, 10 mg/kg oral prodrug ester, 8 hr AUC of bio-active substance, no unit in table (b280 micromole*hr); for Kp: brain and plasma, 10 mg/kg oral dose of amino acid ester prodrug (valine or glycine), bio-active substance. The procedure:
The relative ability of the prodrug to enhance exposure (bioavailability) was assessed in an eight hour PK study using cannulated SPRAGUE DAWLEY® (CD, Charles River Breeding Laboratory) rats. The compounds (parent and pro-drug esters) were administered p.o. at 2.0 ml/kg as a suspension in 0.5% methyl cellulose, 0.1% Tween 80 in water at 10 mg/kg p.o. Blood samples were taken at 1, 2, 4 and 8 hr. After determination of parent concentration, an AUC was calculated for the eight hour study.

In data set [4] the test system is hepatocytes. Nature of the data set: Hepatocyte clearance, human. In kind it is in vitro ADME. From the text: As a consequence the projected human half-life for these two compounds was predicted to be 20 to 40 hr.
The nature of data set [5]: One month rat study, formation of biliary lesions. In kind it is in vivo. As to conditions: for biliary lesion formation in rats: doses up to 300 mg/kg for a month; for Formation of Biliary Lesions: rats. The text has this:
Further investigation established that the toxic agent was a metabolite arising from in vivo oxidative hydroxylation of the alkyl chain containing the tertiary carbinol moiety of compound f.

Data set [6] relates to cytochrome P450 enzymes (rat microsomal). Nature of the data set: Metabolic stability versus rat microsomal oxidative degradation. As to conditions: rat microsomal oxidative degradation mediated by cytochrome P450.
Data set [7] can be described thus: Full PK study in dog (half-life). The following applies: in vivo.
The target of data set [8] is T1, MCHR. Kind of data set: Assessment of MCHR in vivo activity in mature obese rats. As to conditions: dosed as prodrug. The procedure:
Male rats, obtained from Charles River Laboratories weighing 250-300 g, were singly housed in plastic cages on a 12 hour light, 12 hour dark cycle with lights out at 1 pm. The animal room was maintained at 72 degrees F. and 50% humidity. The rats were made obese by giving them simultaneous access to two different diets, HARLAN TEKLAD® rat chow (standard chow) and Research Diets D12327 (a high fat, high carbohydrate, highly palatable diet). The Research Diets chow is comprised of 40% vegetable fat, 40% carbohydrate (sucrose) and 20% protein. The Harlan diet is comprised of 5% fat (soybean oil), 67% carbohydrate (starch) and 22% protein. The normal Harlan rat diet used contains 3.4 kcal/gram of diet, and Research Diet #12327 contains 4.59 kcal/gram. The rats were on the choice diet regime for 10 weeks in order to induce obesity. Once started on the choice diet regime the rats are maintained on it for the duration of the study. Baseline feeding and body weight were collected and used to sort animals into treatment groups. Mean rat weight at the start of the choice diet was 250 grams. The mean weight of the rats at the start of chronic dosing was 661.7±6.3 (mean±sem) grams.
Rats were dosed orally one hour before the start of the dark cycle. Body weight and food consumption were measured daily at the time of dosing. Food consumption was converted to Kcal consumed. Total Kcal consumed was determined by adding the Kcal consumed for each diet and this was determined by multiplying grams of each diet consumed times the Kcal/gram. […]

Data set [9] deals with hepatocytes. Kind of data set: Hepatocyte clearance, dog. The format is in vitro ADME.
[10] abbreviates: 3 mg/kg p.o. daily day 0-4, dosed as prodrug.
Where [11] appears, read: 10 mg/kg p.o. daily day 0-4, dosed as prodrug.
Where [12] appears, read: 30 mg/kg p.o. daily day 0-4, dosed as prodrug.

The melting point is the temperature of the solid-liquid transition. As a reminder, the Ki is a measure of affinity in units of concentration, obtained from inhibition or displacement. Low readings indicate tighter binding, high ones weaker binding. Usually AUC stands for the area under the concentration-time curve, a measure of exposure. What is called Kp is tissue or fluid exposure divided by exposure in the circulation. The half-life is the time needed for the level to fall by half in the phase considered.

T2 sequence (Q99705 whole entry E4Q/A5T): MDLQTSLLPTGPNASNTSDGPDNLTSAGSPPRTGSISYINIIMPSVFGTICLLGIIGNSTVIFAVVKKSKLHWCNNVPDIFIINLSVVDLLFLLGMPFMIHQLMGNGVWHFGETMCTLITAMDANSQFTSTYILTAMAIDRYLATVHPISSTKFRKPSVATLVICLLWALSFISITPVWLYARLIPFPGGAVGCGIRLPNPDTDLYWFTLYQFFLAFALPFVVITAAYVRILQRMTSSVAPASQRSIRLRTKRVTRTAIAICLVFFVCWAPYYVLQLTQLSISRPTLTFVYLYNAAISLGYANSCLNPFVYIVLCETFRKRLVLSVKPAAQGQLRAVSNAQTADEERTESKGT
T1 sequence (P97639 whole entry): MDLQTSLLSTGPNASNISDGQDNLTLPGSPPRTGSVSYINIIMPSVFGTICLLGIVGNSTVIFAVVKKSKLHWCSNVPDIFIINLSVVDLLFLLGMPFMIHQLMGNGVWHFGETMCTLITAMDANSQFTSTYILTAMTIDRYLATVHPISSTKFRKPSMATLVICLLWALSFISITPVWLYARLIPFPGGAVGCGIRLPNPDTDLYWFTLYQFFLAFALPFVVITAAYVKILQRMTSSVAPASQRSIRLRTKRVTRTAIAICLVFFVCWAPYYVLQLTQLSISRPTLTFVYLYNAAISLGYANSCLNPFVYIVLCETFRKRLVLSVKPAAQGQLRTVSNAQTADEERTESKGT

In the case of `COc1cc(-n2cnc3cc(-c4ccc(Cl)cc4)sc3c2=O)ccc1OC[C@H](OC(=O)CN)C1CC1.Cl` [Example 5, (R)-2-(4-(6-(4-Chlorophenyl)-4-oxothieno[3,2-d]pyrimidin-3(4H)-yl)-2-methoxy-phenoxy)-1-cyclopropylethyl 2-aminoacetate, hydrochloride salt], the melting point lay in the range of 218 to 220 °C.
`COc1cc(-n2cnc3cc(-c4ccc(Cl)cc4)sc3c2=O)ccc1OCC1(O)CC(F)(F)C1` [IB, 6-(4-Chlorophenyl)-3-(4-((3,3-difluoro-1-hydroxycyclobutyl)methoxy)-3-methoxyphenyl)thieno[3,2-d]pyrimidin-4(3H)-one]: the “Efficacy at 30 mg/kg (weight loss in young growing rats)” value in [1] stood at 7.9%. The “Weight Reduction versus Vehicle” value in data set [1] (1 mg/kg p.o. daily day 0-4, dosed as prodrug) was 2.9%; in [1] (setting [10]), 4.5%; in data set [1] (setting [11]), 6.4%; in [1] (setting [12]), 7.9%; in data set [8] (0.03 mg/kg oral chronic dosing) it was 1.7%; in [8] (0.1 mg/kg oral chronic dosing), 3.2%. Moreover, the results for the “Weight Reduction versus Vehicle” value in data set [8] (0.3 mg/kg oral chronic dosing), in data set [8] (1 mg/kg oral chronic dosing) and in data set [8] (3 mg/kg oral chronic dosing) were 5.0%, 6.6% and 7.8%, respectively. In [2], this compound yielded a Ki of 18 nM. For the same compound, the AUC in [3] turned out to be 38 µM·h. In [3], the partition ratio (Kp) was found to be 2.5. In addition, the hepatocyte clearance entry in data set [4] is “approximated that of dog”. In addition, in data set [5], the “biliary lesion formation in rats” value is listed as “neither compound IA nor compound IB induced biliary lesion formation”. In addition, the “Formation of Biliary Lesions” value in [5] is recorded as “No”. In addition, the “Rat Microsomal Stability” value in data set [6] is given as 95%. The results for the half-life in [7] and in [7] (Dog Half-life (hr)) were 16 h and < 20 h, respectively.
For `CCC(O)COc1ccc(-n2cnc3cc(-c4ccc(Cl)cc4)sc3c2=O)cc1OC` (stereo not drawn) [c], the “Efficacy at 30 mg/kg (weight loss in young growing rats)” value in data set [1] worked out at 4.1%. Moreover, the affinity in data set [2], expressed as Ki, was 12 nM. Besides, in data set [3], the AUC was 14.5 µM·h and the Kp came out at 3.2. Further, the “Formation of Biliary Lesions” value in data set [5] was “No”. In addition, the “Rat Microsomal Stability” value in [6] is 60%.
Regarding `COc1cc(-n2cnc3cc(-c4ccc(Cl)cc4)sc3c2=O)ccc1OC[C@H](O)C1CC1` [IA, (R)-6-(4-Chlorophenyl)-3-(4-(2-cyclopropyl-2-hydroxyethoxy)-3-methoxyphenyl)-thieno[3,2-d]pyrimidin-4(3H)-one], the “Efficacy at 30 mg/kg (weight loss in young growing rats)” value in [1] was determined as 6.4%. The Ki in [2] is 10 nM. In data set [3], the AUC was determined as 24.5 µM·h and the Kp was found to be 0.9. In addition, the hepatocyte clearance result in [4] is “approximated that of dog”. In data set [5], the “biliary lesion formation in rats” value is recorded as “neither compound IA nor compound IB induced biliary lesion formation” and the “Formation of Biliary Lesions” value was “No”. Besides, in data set [6], the “Rat Microsomal Stability” value amounted to 92%. In data set [7] (Dog Half-life (hr)), the half-life was < 20 h.
Consider `COc1cc(-n2cnc3cc(-c4ccc(Cl)cc4)sc3c2=O)ccc1OCC1(O)COC1` [b], for which the “Efficacy at 30 mg/kg (weight loss in young growing rats)” value in data set [1] was 0%. Further, the “Formation of Biliary Lesions” value in data set [5] is reported as “Yes”. Also, the “Rat Microsomal Stability” value in data set [6] is on record as 40%.
Regarding “(R)-6-(4-Chlorophenyl)-3-(4-(2-cyclopropyl -2-hydroxyethoxy)-3-methoxyphenyl)-thieno[3,2-d]pyrimidin-4(3H)-one [IA]”, the “Weight Reduction versus Vehicle” value in [1] (setting [10]) is recorded as 2.6%; in [1] (setting [11]) it was 3.5%; in data set [1] (setting [12]), 6.4%; in [8] (0.3 mg/kg oral chronic dosing) it was 2.09%; in data set [8] (1 mg/kg oral chronic dosing), 3.90%; in data set [8] (3 mg/kg oral chronic dosing), 3.57%. For the same compound, the “Weight Reduction versus Vehicle” value in data set [8] (10 mg/kg oral chronic dosing) amounted to 8.42%; in [8] (30 mg/kg oral chronic dosing) it was 10.16%.
As for `CCS(=O)(=O)CC(O)COc1ccc(-n2cnc3cc(-c4ccc(Cl)cc4)sc3c2=O)cc1OC` (stereo not drawn) [e], in [1], the “Efficacy at 30 mg/kg (weight loss in young growing rats)” value is recorded as 4.5%. In addition, in data set [2], the affinity corresponds to a Ki of 8 nM. Besides, in data set [3], the AUC was determined as 46 µM·h and the Kp was 0.09. In addition, the “Formation of Biliary Lesions” value in data set [5] is recorded as “No”. The “Rat Microsomal Stability” value in data set [6] came to 100%.
In the case of `COc1cc(-n2cnc3cc(-c4ccc(Cl)cc4)sc3c2=O)ccc1OCC(O)CC(F)(F)F` (stereo not drawn) [d], in data set [1], the “Efficacy at 30 mg/kg (weight loss in young growing rats)” value is 3.2%. The affinity in [2] corresponds to a Ki of 11 nM. In addition, in [3], the AUC came to 20 µM·h and the Kp was found to be 1.1. Further, the “Formation of Biliary Lesions” value in data set [5] is listed as “No”. In addition, the “Rat Microsomal Stability” value in [6] worked out at 100%.
Regarding `COc1cc(-n2cnc3cc(-c4ccc(Cl)cc4)sc3c2=O)ccc1OCC(C)(C)O` [f], in data set [9], the hepatocyte clearance result was “very slow”. Further, the “Efficacy at 30 mg/kg (weight loss in young growing rats)” value in data set [1] was found to be 8.2%. Besides, in data set [2], the Ki came out at 12 nM. Moreover, in data set [3], the exposure (AUC) was determined as 45 µM·h and the Kp is 2. In addition, in data set [4], the hepatocyte clearance result was “very slow”. Besides, the “biliary lesions in rats” value in data set [5] (30 mg/kg for a month) is “developed obstructive hepatic biliary lesions”. Also, in data set [5], the “Formation of Biliary Lesions” value is “Yes”. The “Rat Microsomal Stability” value in [6] is 98%. Also, the half-life in data set [7] (Dog Half-life (hr)) is > 200 h.
In the case of `COc1cc(-n2cnc3cc(-c4ccc(Cl)cc4)sc3c2=O)ccc1OCC1(O)CCC1` [a], the “Rat Microsomal Stability” value in data set [6] worked out at 20%.
